Among the data in US11154563B2, “Immunoproteasome inhibitors” (Principia Biopharma Inc., priority 2017, dated 2021) are IC50 values, retold here.

Format in all cases: biochemical
Experiment [1] has as its target immunoproteasome LMP7/B5i subunit (Homo sapiens, UniProt P20618+P28062). Briefly: Caliper-based proteasome enzymatic activity assay, LMP7. Conditions: human recombinant immunoproteasome 0.3 nM, FAM-peptide substrate 1 μM, 3 h at rt. In outline: (§1)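 Recombinant human immunoproteasome or constitutive proteasome (0.3 nM) with 1 μM FAM-peptide in 20 mM Hepes pH 7.4, 0.015% SDS, 0.01% BSA; LMP7/β5c ran 3 h at rt and were stopped with 5 uM carfilzomib, LMP2 ran 2 h and was stopped with 6.7 uM ixazomib. Cleaved product quantified by microfluidic separation; IC50 from percent inhibition.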

Experiment [2] deals with constitutive proteasome β5c unit (Homo sapiens, UniProt P20618+P28074). Briefly: Caliper-based proteasome enzymatic activity assay, β5c. Conditions: human recombinant constitutive proteasome 0.3 nM, FAM-peptide substrate 1 μM, 3 h at rt; read-out: β5c subunit IC50. In outline:
as §1

For experiment [3], the target named is immunoproteasome LPM2/β1i subunit (Homo sapiens, UniProt P28065+P40306). Briefly: Caliper-based proteasome enzymatic activity assay, LMP2. The settings on record: human recombinant immunoproteasome 0.3 nM, FAM-peptide substrate 1 μM, 2 h at rt. The procedure: A Caliper-based proteasome assay (Caliper Life Sciences, Hopkinton, Mass.) was used to measure inhibition of the immunoproteasome LMP7/B5i subunit, the immunoproteasome LPM2/β1i subunit, and the constitutive proteasome β5c unit for a compound of Formula (I). For LMP7 and β5c, serial dilutions of test compounds were incubated with either human recombinant immunoprotcasome or constitutive proteasome (0.3 nM enzyme) and a carboxyfluorescein (FAM)-labeled peptide substrate FAM-TYETFKSIMKKSPF-NH2 (1 μM) at it for 3 h. The reaction was then terminated with a buffer containing the known proteasome inhibitor carfilzomib at a concentration of 5 uM. For LMP2, serial dilutions of test compounds were incubated with human recombinant immunoproteasome proteasome (0.3 nM enzyme) and a carboxyfluorescein (FAM)-labeled peptide substrate FAM-[…]-NH2 (1 μM) at rt for 2 h. The reaction was then terminated with a buffer containing the known proteasome inhibitor ixazomib at a concentration of 6.7 uM. The reaction buffer was 20 mM Hepes pH 7.4, 0.01% bovine serum albumin, 0.015% SDS, 0.5 mM EDTA, 1%0/DMSO. The peptide cleavage reaction product was quantified on a Caliper LabChip 3000. Percent inhibition was calculated for each compound dilution and the concentration that produced 50% inhibition was calculated. This value is presented as the IC50.

On to `C=CC(=O)N1CCCC[C@@H]1COC(=O)N[C@@H](Cc1ccccc1)B(O)O` [Example 8, ((R)-1-(((((R)-1-acryloylpiperidin-2-yl)methoxy)carbonyl)amino)-2-phenylethyl)boronic acid], for which the IC50 in experiment [1], in experiment [2] and in experiment [3] was more than 5000 nM in each case.
In the case of `CC(C)(C)/C=C(\C#N)C(=O)N1CCCC[C@H]1COC(=O)N[C@@H](Cc1ccccc1)B(O)O` [Example 9, ((R)-1-(((((S)-1-((E)-2-cyano-4,4-dimethylpent-2-enoyl)piperidin-2-yl)methoxy)carbonyl)amino)-2-phenylethyl)boronic acid], the values for the 50% inhibitory concentration (IC50) in experiment [1], in experiment [2] and in experiment [3] were 14 nM, more than 5000 nM and 3650 nM, respectively.
Regarding `C=CC(=O)N1CCCC[C@H]1COC(=O)N[C@@H](Cc1ccccc1)B(O)O` [Example 11, ((R)-1-(((((S)-1-acryloylpiperidin-2-yl)methoxy)carbonyl)amino)-2-phenylethyl)boronic acid], the values for the IC50 in experiment [1], in experiment [2] and in experiment [3] were 957 nM, more than 5000 nM and 3240 nM, respectively.
The corresponding values for `CC(C)C=C(C#N)C(=O)N1CCC[C@H]1COC(=O)N[C@@H](Cc1ccccc1)B(O)O` [Example 12, ((R)-1-(((((S)-1-(2-cyano-4-methylpent-2-enoyl)pyrrolidin-2-yl)methoxy)carbonyl)amino)-2-phenylethyl)boronic acid] are 39 nM, more than 5000 nM and more than 5000 nM.
The corresponding values for `CC(C)C=C(C#N)C(=O)N1CCCC[C@H]1COC(=O)N[C@@H](Cc1ccccc1)B(O)O` [Example 13, ((R)-1-(((((S)-1 (2-cyano-4-methylpent-2-enoyl)piperidin-2-yl)methoxy)carbonyl)amino)-2-phenylethyl)boronic acid] are 38 nM, more than 5000 nM and 4040 nM.
The corresponding values for `C=CC(=O)N1CCC[C@@H]1COC(=O)N[C@@H](Cc1ccccc1)B(O)O` [Example 14, ((R)-1-(((((R)-1-acryloylpyrrolidin-2-yl)methoxy)carbonyl)amino)-2-phenylethyl)boronic acid] are 123 nM, 4850 nM and more than 5000 nM.
As for `CC(C)C=C(C#N)C(=O)N1CCC[C@@H]1COC(=O)N[C@@H](Cc1coc2ccccc12)B(O)O` [Example 16, ((R)-2-(benzofuran-3-yl)-1-(((((R)-1-(2-cyano-4-methylpent-2-enoyl)pyrrolidin-2-yl)methoxy)carbonyl)amino)ethyl)boronic acid], the IC50 in experiment [1] is 2.5 nM; in experiment [2], 444 nM; in experiment [3], more than 5000 nM.
As for `CC(C)(C=C(C#N)C(=O)N1CCC[C@@H]1COC(=O)N[C@@H](Cc1ccccc1)B(O)O)N1CCN(C2COC2)CC1` [Example 17, ((R)-1-(((((R)-1-(2-cyano-4-methyl-4-(4-(oxetan-3-yl)piperazin-1-yl)pent-2-enoyl)pyrrolidin-2-yl)methoxy)carbonyl)amino)-2-phenylethyl)boronic acid], the IC50 is 1.9 nM in experiment [1], 2950 nM in experiment [2] and more than 5000 nM in experiment [3].
Regarding `Cc1ccc(C[C@H](NC(=O)OC[C@H]2CCCN2C(=O)C(C#N)=CC(C)(C)C)B(O)O)cc1` [Example 18, ((R)-1-(((((R)-1-(2-cyano-4,4-dimethylpent-2-enoyl)pyrrolidin-2-yl)methoxy)carbonyl)amino)-2-(p-tolyl)ethyl)boronic acid], the results for the IC50 in experiment [1], in experiment [2] and in experiment [3] were 2 nM, 1540 nM and more than 5000 nM, respectively.
For `CC1(C=C(C#N)C(=O)N2C[C@@H]3C[C@@H]3[C@@H]2COC(=O)N[C@@H](Cc2ccc(F)cc2)B(O)O)CCOCC1` [Example 119, ((R)-1-(((((1S,2R,5R)-3-(2-cyano-3-(4-methyltetrahydro-2H-pyran-4-yl)acryloyl)-3-azabicyclo[3.1.0]hexan-2-yl)methoxy)carbonyl)amino)-2-(4-fluorophenyl)ethyl)boronic acid], the IC50 in experiment [1] and in experiment [2] was more than 5000 nM each time.
Turning to `CC(C)(C=C(C#N)C(=O)N1CCC[C@]1(C)COC(=O)N[C@@H](Cc1ccc(F)cc1)B(O)O)N1CCC(F)(F)C1` [Example 120, ((R)-1-(((((R)-1-(2-cyano-4-(3,3-difluoropyrrolidin-1-yl)-4-methylpent-2-enoyl)-2-methylpyrrolidin-2-yl)methoxy)carbonyl)amino)-2-(4-fluorophenyl)ethyl)boronic acid], the IC50 in experiment [1] is 530 nM; in experiment [2] it was more than 5000 nM.
The corresponding values for `C=C(F)C(=O)N1CCC[C@]1(C)COC(=O)N[C@@H](Cc1ccc(F)cc1)B(O)O` [Example 121, ((R)-1-(((((R)-1-(2-fluoroacryloyl)-2-methylpyrrolidin-2-yl)methoxy)carbonyl)amino)-2-(4-fluorophenyl)ethyl)boronic acid] are 1.9 nM and 1750 nM.
Turning to `CC(C)(C=C(C#N)C(=O)N1CCCC[C@@H]1COC(=O)N[C@@H](Cc1ccc(C#N)cc1)B(O)O)N1CCC(F)(F)C1` [Example 122, ((R)-1-(((((R)-1-(2-cyano-4-(3,3-difluoropyrrolidin-1-yl)-4-methylpent-2-enoyl)piperidin-2-yl)methoxy)carbonyl)amino)-2-(4-cyanophenyl)ethyl)boronic acid], the results for the IC50 in experiment [1] and in experiment [2] were 1.5 nM and 4180 nM, respectively.
As for `CC(C)(C=C(C#N)C(=O)N1C[C@@H]2C[C@@H]2[C@@H]1COC(=O)N[C@@H](Cc1ccc(F)cc1)B(O)O)N1CCOCC1` [Example 123, ((R)-1-(((((1S,2R,5R)-3-(2-cyano-4-methyl-4-morpholinopent-2-enoyl)-3-azabicyclo[3.1.0]hexan-2-yl)methoxy)carbonyl)amino)-2-(4-fluorophenyl)ethyl)boronic acid], the IC50 in experiment [1] was 550 nM; in experiment [2], more than 5000 nM.
With `CC(C)(C=C(C#N)C(=O)N1CCCC[C@@H]1COC(=O)N[C@@H](Cc1ccc(S(C)(=O)=O)cc1)B(O)O)N1CCC(F)(F)C1` [Example 124, ((R)-1-(((((R)-1-(2-cyano-4-(3,3-difluoropyrrolidin-1-yl)-4-methylpent-2-enoyl)piperidin-2-yl)methoxy)carbonyl)amino)-2-(4-(methylsulfonyl)phenyl)ethyl)boronic acid], the IC50 in experiment [1] is 2.2 nM; in experiment [2], 550 nM.
The corresponding values for `COC(=O)N1CCN(C(C)(C)C=C(C#N)C(=O)N2CCCC[C@@H]2COC(=O)N[C@@H](Cc2ccccc2)B(O)O)CC1` [Example 125, ((R)-1-(((((R)-1-(2-cyano-4-(4-(methoxycarbonyl)piperazin-1-yl)-4-methylpent-2-enoyl)piperidin-2-yl)methoxy)carbonyl)amino)-2-phenylethyl)boronic acid] are 1.6 nM and 2860 nM.
The corresponding values for `CC(C)(C=C(C#N)C(=O)N1CCCC[C@@H]1COC(=O)N[C@@H](Cc1ccccc1)B(O)O)N1CCN(C2COC2)CC1` [Example 126, ((R)-1-(((((R)-1-(2-cyano-4-methyl-4-(4-(oxetan-3-yl)piperazin-1-yl)pent-2-enoyl)piperidin-2-yl)methoxy)carbonyl)amino)-2-phenylethyl)boronic acid] are 21 nM and more than 5000 nM.
`CC(C)(C=C(C#N)C(=O)N1CCCC[C@@H]1COC(=O)N[C@@H](Cc1ccc(F)cc1)B(O)O)N1CCN(C2COC2)CC1` [Example 127, ((R)-1-(((((R)-1-(2-cyano-4-methyl-4-(4-(oxetan-3-yl)piperazin-1-yl)pent-2-enoyl)piperidin-2-yl)methoxy)carbonyl)amino)-2-(4-fluorophenyl)ethyl)boronic acid]: the IC50 in experiment [1] was found to be 5 nM; in experiment [2], 900 nM.
The corresponding values for `CC(C)(C)/C=C(\C#N)C(=O)N1CCNC[C@@H]1COC(=O)N[C@@H](Cc1ccccc1)B(O)O` [Example 128, ((R)-1-(((((R)-1-((E)-2-cyano-4,4-dimethylpent-2-enoyl)piperazin-2-yl)methoxy)carbonyl)amino)-2-phenylethyl)boronic acid] are 2.3 nM and 2730 nM.
`CC(C)(C=C(C#N)C(=O)N1CCCC[C@]1(C)COC(=O)N[C@@H](Cc1ccccc1)B(O)O)N1CCC(F)(F)C1` [Example 129, ((R)-1-(((((R)-1-(2-cyano-4-(3,3-difluoropyrrolidin-1-yl)-4-methylpent-2-enoyl)-2-methylpiperidin-2-yl)methoxy)carbonyl)amino)-2-phenylethyl)boronic acid]: the IC50 stood at 2 nM in experiment [1] and 1940 nM in experiment [2].
